Reference: article PMC12502323, “Discovery of small molecules with anthelmintic potential in the Medicines for Malaria Venture’s COVID and Global Health Priority Boxes using an infrared-based assay for Caenorhabditis elegans motility” (BMC Research Notes, 2025)
Where “and” joins values, the source holds several entries; their conditions need not be identical. Equal values may be shown once. Read-outs that look alike come from different tables or passages of the source.

Tests used:
Caenorhabditis elegans [1] = test: Primary screen, infrared-based (WMicroTracker ONE) C. elegans L4 motility assay at 40 µM; format: cell-based, Caenorhabditis elegans (Bristol N2); settings: primary screen at 40 µM; for C. elegans Mean motility vs. DMSO control (%): C. elegans L4; for C. elegans NOTES (HIT): hit if motility < 25%
Description: (§1) Methods to cultivate C. elegans (Bristol N2) and synchronize growth to the L4 stage were as described. WMicroTracker ONE (Phylumtech, Argentina) detects movement by measuring the scattering of infrared light beams that are projected into each well of a microtiter plate (two 880 nm beams/well in a 96w plate).
(§2) Synchronized C. elegans L4 were detached from agar and collected in M9 buffer. Worms were centrifuged for 1 min at 1,900 g and washed in S medium to decrease the concentration of E. coli OP50 that might interfere with infrared detection. Control and assay compounds (1 µL) in DMSO (Fisher Scientific, Cat# BP231-100) were spotted into each well of a clear, flat-bottomed 96-well polystyrene plate (Fisherbrand, Cat# FB012931). DMSO (1%) was used as the negative control. Approximately 70 L4 in 100 µL S medium were added per well. First pass screens employed 40 µM compound, and motility was measured every 20 min for 24 h in the WMicroTracker ONE reader in which the temperature was 25 ± 1 °C. Motility was normalized relative to the DMSO controls. Hits were defined as compounds that decreased motility to ≤ 25% of that in DMSO control worms.

Caenorhabditis elegans [2] = test: Concentration response C. elegans L4 motility assay (WMicroTracker ONE), EC50; format: cell-based, Caenorhabditis elegans (Bristol N2); settings: read-out: EC50 (motility)
Description: as §1, §2
For potent compounds, concentration response assays (nine concentrations: 0.005 µM to 40 or 100 µM) were conducted to measure the half-maximal effective concentration (EC50). Compounds were serially diluted in DMSO using 96-well, v-bottomed polypropylene dilution plates (ThermoFisher Scientific, Cat#: 249944) and 1 µL aliquots spotted into each well of the assay plates. Motility was measured as described above. Prism GraphPad, Version 8.0 (GraphPad Software, San Diego, CA) was used to calculate EC50 values using a non-linear sigmoidal four parameter logistic curve.

HEK293 cells = test: HEK293 cytotoxicity assay (resazurin); format: cell-based, Human
Description: (§3) Potent compounds were also evaluated for cytotoxicity against HEK293 cells. Cells were cultured at 37 °C and 5% in Dulbecco’s Modified Eagle Medium (DMEM; Gibco, Cat#: 11965-092) containing 10% heat-inactivated fetal bovine serum (FBS; Omega Scientific Inc., Cat#: FB02) and 1% penicillin-streptomycin (ThermoFisher Scientific, Cat#: 15140122), and then sub-cultured when 60–80% confluent. Cells were detached with 0.05% trypsin/EDTA (ThermoFisher Scientific, Cat#: 25300054) and centrifuged for 5 min at 1,900 g.
(§4) Screens were performed over 11 compound concentrations (0.00007–40 µM) that had been prepared in DMSO. Aliquots (1 µL) were spotted into each well of a clear-bottomed, 96-well, polystyrene assay plate (Fisher Scientific, Cat#: FB012931). Approximately 20,000 HEK293 cells in 99 µL of the above supplemented DMEM were then added to each well. After 46 h at 37 °C and 5% CO2, 20 µL 0.5 mM resazurin (ThermoFisher Scientific, Cat#: B21187.03) were added and the incubation continued for 2 h at 37 °C [27]. Fluorescence was measured in a 2104 EnVision Multilabel Plate Reader (PerkinElmer) at 560 and 590 nm excitation and emission wavelengths, respectively. Raw data were exported from the EnVision Workstation software (version 1.13.3009.1401; PerkinElmer) into Prism GraphPad, and the half-maximal cytotoxic concentration (CC50) values were calculated using a non-linear regression curve.

C. elegans L4 = test system: C. elegans L4; design: method as in PMID 38486232; settings: GHPB screen, WMicroTracker ONE; cited from earlier work
Haemonchus contortus = test system: Haemonchus contortus; design: method as in PMID 38486232; settings: GHPB screen, WMicroTracker ONE; cited from earlier work
[3] = HEK293 cytotoxicity assay (resazurin); format: cell-based, Human; settings: human, HEK293 cell viability after 48 h, read-out: CC50
Description: as §3, §4

C. elegans = settings: read-out: EC50 previously recorded, cited from earlier work

Row | Molecule | C. elegans Mean motility vs. DMSO control (%) (Caenorhabditis elegans [1]) | C. elegans NOTES (HIT) (Caenorhabditis elegans [1]) | hit in screen against C. elegans L4 (C. elegans L4) | hit in screen against exsheathed L3 of Haemonchus contortus (Haemonchus contortus) | also measured
1 | O=C(Nc1ccc(Cl)c(C(F)(F)F)c1)Nc1ccc(Cl)c(C(F)(F)F)c1 [flucofuron] | 20.31 | HIT | hit only against the parasite | hit | EC50 (Caenorhabditis elegans [2]; C. elegans L4, after 24 h): 20600 ± 10700 nM; CC50 (HEK293 cells; HEK293 cell viability after 48 h): 453 ± 331 nM
2 | CC(F)c1ncnc(NCCc2ccc(OC(F)(F)F)cc2)c1Cl (stereo not shown) [flufenerim] | 0.26 | HIT | hit | hit | EC50 (Caenorhabditis elegans [2]; C. elegans L4, after 12 h): 211 ± 34 nM
3 | COc1ccc2c(c1)c(CC(=O)O)c(C)n2C(=O)c1ccc(Cl)cc1 [indomethacin, reference compound] | 18.64 | HIT |  |  | EC50 (Caenorhabditis elegans [2]; Caenorhabditis elegans, C. elegans L4, after 24 h): 23200 ± 14100 nM; CC50 at 48 h ([3]; HEK293 cells): > 100000 nM; cytotoxicity to HEK293 cells (in words) (HEK293 cells; HEK293 cells): not cytotoxic
4 | CCc1nn(C)c(C(=O)NCc2ccc(Oc3ccc(C)cc3)cc2)c1Cl [tolfenpyrad] | 0.26 | HIT |  |  | EC50 (Caenorhabditis elegans [2]; Caenorhabditis elegans, C. elegans L4, after 12 h): 950 ± 256 nM; CC50 at 48 h [3]: 33800 ± 31400 nM; EC50 (C. elegans; after 24 h): 200 ± 40 nM
5 | ivermectin [reference compound] |  | HIT |  |  | C. elegans Mean motility vs. DMSO control (%) (Caenorhabditis elegans [1]; listed as MMV672931): 3.37% and 9.96%; EC50 (Caenorhabditis elegans [2]; C. elegans L4, after 1 h): 130 ± 51 nM; EC50 (C. elegans; after 90 min): 190 ± 10 nM
